Data taken from patent US5455267A, “Chromone derivative, and aldose reductase inhibitor comprising said compound as active component” (Tsumura & Co., priority 1990, dated 1995).
Counter-ions that a name gives are not always drawn. Like-named read-outs stand apart in the source and are kept apart here.

Columns and labels:
[1] = system: sorbitol contained in the sciatic nerves (aldose reductase); assay: Determination of Aldose Reductase Activity (In Vivo): sorbitol in sciatic nerves of STZ diabetic rats; set-up: species or system Wistar male rats; conditions: Rattus norvegicus, po, 336 h, Table 3, sciatic nerve sorbitol, read-out: Repression rate %; for inhibition in vivo at 30 mg/kg: 30 mg/kg orally for 2 weeks; for inhibition in vivo at 50 mg/kg: 50 mg/Kg orally
Procedure: Streptozotocin (STZ) dissolved in 10 mM citrate buffer (pH 4.5) was administered intravenously to 6 week-old Wistar male rats […] in an amount of 65 mg/kg. 48 hours thereafter, blood was collected from the carotid […] of the rats. Rats with a blood glucose level of 200 mg/dl or more were classified as those with diabetes. Rats with a persistent high level of blood sugar were employed in the experiment. The blood glucose level was determined by the glucose oxidase method. 2 weeks after administration of STZ, a compound obtained in the following examples was suspended in purified water or 0.5% carboxy sodium cellulose solution. This solution was orally administered into a rat in an amount of 30 mg/kg for 2 weeks. 2 weeks after the adminstration, sciatic nerves were removed from the rat under ether anesthesia. The sciatic nerves were weighed and stored at -20° C. The amount of sorbitol contained in the sciatic nerves was determined as follows. That is, the sciatic nerves were subjected to extraction with 1 ml of purified water containing 10 gg/ml arabinitol at 100° C. for 20 min., followed by addition of 0.2 ml each of 0.2M barium hydroxide and 0.19M zinc sulfate. […] The resulting sample was […] then analyzed by gas chromatography. Sorbitol is an intermediate which occurs during convertion of glucose to fructose by aldose reductase, and this intermediate is accumulated together with fructose in the crystalline lenses and sciatic nerves, particularly under a high level of blood glucose. Therefore, the smaller amount of sorbitol formed indicates higher inhibition of aldose reductase.

aldose reductase = biological target: T1, aldose reductase (Rattus norvegicus, UniProt P07943); assay: Determination of Aldose Reductase Activity (In Vitro); assay type: biochemical, rat (Wistar); conditions: for inhibition at 10 µM: at the concentration of 10 μM, read-out: Inhibition rate %
T1 construct: The crystalline lenses were homogenized in 135 mM sodium-potassium-phosphate buffer (pH 7.0) and centrifuged; from tissue; host or cells: lens of 6 week-old Wistar rats (30,000 rpm supernatant of homogenate)
Procedure: 6 week-old Wistar rats were sacrificed under ether anesthesia, and immediately lenses were removed and stored at -20° C. The crystalline lenses were homogenized in 135 mM sodium-potassium-phosphate buffer (pH 7.0) and centrifuged for 30 min. at 30,000 rpm. The supernatant was used as an aldose-reductase solution. The above procedure was carried out at 4° C. The enzyme solution was stored at -20° C.
The measurement of aldose reductase activity was conducted according to the method as described by Duffane et al. (Biochemical Medicine, 32:99-105 (1984)).
That is, 100 gl of the above enzyme solution and 100 gl of a solution prepared by dissolving a compound obtained in the following example to a final concentration of from 1.0×10^-5 to 4.0×10^-7 M in dimethylsulfoxide (DMSO) were added to 800 gl of 135 mM sodium-potassium-phosphate buffer (pH 7.0) containing 100 mM lithium sulfate, 0.03 mM NADPH (reduced form of nicotinamide adeninc dinucleotide phosphate) and 20 mM glucose as a substrate. The sample was allowed to react for 30 min. at 30° C. The reaction was stopped by addition of 0.3 ml of 0.5N hydrochloric acid. The NADP (oxided form of nicotinamide adenine dinucleotide) formed during the above reaction was converted into a fluorescent substance by addition of 1 ml of 6N sodium hydroxide containing 10 mM imidazole. 30 min. thereafter, the sample was measured for fluorescence intensity at the fluorescence wavelength of 460 nm (excitation wavelength: 360 nm) using a fluorescence photometer F-4000 (manufactured by Hitachi, Ltd.) at room temperature. A sample containing DMSO in place of the present compound was used as a control, and its fluorescence intensity was determined in the same manner as above.
Aldose reductase is an enzyme to convert DL-glyceraldehyde or glucose into polyol in the presence of NADPH as a coenzyme. As this reaction proceeds, NADPH is converted into NADP, so that the smaller amount of NADP formed indicates higher inhibition of aldose reductase. […]

aldehyde reductase = biological target: T2, aldehyde reductase (Rattus norvegicus, UniProt P51635); assay: Ability of Selective Inhibition of Aldose Reductase (aldehyde reductase activity); assay type: biochemical; conditions: for IC50: Table 4, rat kidney aldehyde reductase, 50 mM DL-glyceraldehyde, pH 7.0, read-out: 50% Inhibition conc [IC50 (M)] Aldehyde reductase
T2 construct: The supernatant thus obtained was subjected to 30-60% ammonium sulfate fractionation; from tissue; host or cells: rat kidney (30-60% ammonium sulfate fraction of homogenate supernatant, dialyzed)
T2 sequence (P51635 1-325): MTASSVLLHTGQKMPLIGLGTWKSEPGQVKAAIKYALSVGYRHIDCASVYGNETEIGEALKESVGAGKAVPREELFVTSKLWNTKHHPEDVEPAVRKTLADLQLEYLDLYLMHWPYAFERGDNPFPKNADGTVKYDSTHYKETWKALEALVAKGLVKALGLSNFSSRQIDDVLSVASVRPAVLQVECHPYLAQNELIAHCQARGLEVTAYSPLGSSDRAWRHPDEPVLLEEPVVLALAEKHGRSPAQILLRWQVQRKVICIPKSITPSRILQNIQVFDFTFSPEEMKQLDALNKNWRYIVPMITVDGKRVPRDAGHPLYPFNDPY
Procedure: From rats under ether anesthesia, the kidneys were removed and stored at -20 ° C. The kidneys were homogenized in 0.1M phosphate buffer (pH 7.2) containing 5 mM 2-mercaptoethanol (kidneys: buffer =1:10 (by volume)), followed by centrifugation (14,000 rpm, 20 min., 4° C.), whereby a supernatant was obtained. The supernatant thus obtained was subjected to 30-60% ammonium sulfate fractionation. The resulting precipitates were collected by centrifugation (9,200 rpm, 20 min., 4° C.) The precipitates were suspended in a buffer with the same composition as described above. This suspension was dialyzed overnight at 4° C. against a buffer with the same composition, so that a crude aldehyde reductase solution was obtained. The activity of aldehyde reductase was determined in the same manner as for aldose reductase except for use of 0.1M phosphate buffer (pH 7.0) and as substrate 50 mM DL-glyceraldehyde.
The ability of selective inhibition of aldose reductase was determined by dividing the thus obtained 50% inhibition concentration [IC50 (M)] of aldehyde reductase by the above 50% inhibition concentration [IC50 (M)]of aldose reductase.

[2] = Table 3, rat lens aldose reductase, 20 mM glucose, 30 min, 30° C, pH 7.0, read-out: 50% Inhibition Conc. [IC50 (M)]
[3] = Table 4, aldose reductase, read-out: 50% Inhibition conc [IC50 (M)] Aldose reductase

| inhibition at 10 µM (aldose reductase; Table 3) | IC50 (aldose reductase; [2]) | IC50 (aldehyde reductase) | Structure (SMILES) | inhibition in vivo at 30 mg/kg [1] | other results |
| --- | --- | --- | --- | --- | --- |
|  |  |  | CCOc1c(OC)c(OC(C)C)cc2oc(Sc3ccc(OC(=O)CN)cc3)cc(=O)c12 [Example 36, 5-ethoxy-2-(4-glycyloxyphenylthio)-7-isopropoxy-6-methoxychromone hydrochloride] | 12.3% |  |
| 81% | 1.6e-06 M |  | COc1c(O)cc2oc(Oc3ccc(O)cc3)cc(=O)c2c1O [Capillarisin, reference compound] |  | inhibition in vivo at 100 mg/kg ([1]; 100 mg/kg orally): 18.9% |
| 96.7% | 1.1e-07 M | 0.0001 M | CCC(CC)Oc1cc2oc(Sc3ccc(O)cc3)cc(=O)c2c(O)c1OC [Example 33, 7-(1-ethylpropoxy)-5-hydroxy-2-(4-hydroxyphenylthio)-6-methoxychromone] |  |  |
|  |  |  | CCC(CC)Oc1cc2oc(Sc3ccc(OC(=O)c4ccc(CN5CCN(C)CC5)cc4)cc3)cc(=O)c2c(OC)c1OC [Compound 2 obtained in Example 39, 5,6-dimethoxy-7-(1-ethylpropoxy)-2-{4-[4-(4-methylpiperazinomethyl)benzoyloxy]phenylthio}chromone dihydrochloride] | 4.6% |  |
| 98.3% | 3e-08 M | > 0.0001 M | COc1c(OC(C)C)cc2oc(Sc3ccc(O)cc3)cc(=O)c2c1OC [Example 22, 5,6-dimethoxy-2-(4-hydroxyphenylthio)-7-isopropoxychromone] |  | inhibition in vivo at 50 mg/kg [1]: 6.8% |
|  |  |  | CCC(CC)Oc1cc2oc(Sc3ccc(OC(=O)CN)cc3)cc(=O)c2c(OC)c1OC [Compound 1 obtained in Example 37, 7-(1-ethylpropoxy)-5,6-dimethoxy-2-(4-glycyloxyphenylthio)chromone hydrochloride] | 51.6% |  |
| 93.2% | 6e-08 M | > 0.0001 M | CCC(CC)Oc1cc2oc(Sc3ccc(O)cc3)cc(=O)c2c(OC)c1OC [Example 25, 5,6-dimethoxy-7-(1-ethylpropoxy)-2-(4-hydroxyphenylthio)chromone] |  | inhibition in vivo at 50 mg/kg [1]: 16% |
| 97.3% | 1.1e-07 M | > 0.0001 M | COc1cc2oc(Sc3ccc(O)cc3)cc(=O)c2c(OC)c1OC [Example 1, 2-(4-hydroxyphenylthio)-5,6,7-trimethoxychromone] |  |  |
|  |  |  | COc1c(OC(C)C)cc2oc(Sc3ccc(OC(=O)CN)cc3)cc(=O)c2c1OC [Example 35, 5,6-dimethoxy-2-(4-glycyloxyphenylthio)-7-isopropoxychromone hydrochloride] | 43.7% |  |
| 94.5% |  | 1e-05 M | COc1c(O)cc2oc(Sc3ccc(O)cc3)cc(=O)c2c1O [Compound (Formula B), reference compound] |  | IC50 (aldose reductase; [3]): 1.8e-07 M; Ability of selective inhibition (aldehyde reductase; IC50 of aldehyde reductase divided by IC50 of aldose reductase): 55.5 |
|  |  |  | CCC(CC)Oc1cc2oc(Sc3ccc(OC(=O)c4ccc(CN5CCN(C)CC5)cc4)cc3)cc(=O)c2c(O)c1OC [Example 40, 7-(1-ethylpropoxy)-5-hydroxy-2-{4-[4-(4-methylpiperazinomethyl)benzoyloxy]phenylthio}-6-methoxychromone dihydrochloride] | 27.9% |  |
| 98.7% |  | > 0.0001 M | CCOc1c(OC)c(OC(C)C)cc2oc(Sc3ccc(O)cc3)cc(=O)c12 [Example 18, 5-ethoxy-2-(4-hydroxyphenylthio)-7-isopropoxy-6-methoxychromone] |  | IC50 (aldose reductase; [3]): 1.8e-08 M; inhibition in vivo at 50 mg/kg [1]: 5.9% |

| Structure (SMILES) | inhibition at 10 µM (aldose reductase; Table 3) | IC50 (aldose reductase; [2]) | IC50 (aldehyde reductase) | inhibition in vivo at 30 mg/kg [1] | other results |
| --- | --- | --- | --- | --- | --- |
| CCC(C)Oc1cc2oc(Sc3ccc(O)cc3)cc(=O)c2c(OC)c1OC (stereo not drawn) [Example 23, 7-s-butoxy-5,6-dimethoxy-2-(4-hydroxyphenylthio)chromone] | 100% | 4.4e-08 M | > 0.0001 M |  |  |
| CCC(C)Oc1cc2oc(Sc3ccc(O)cc3)cc(=O)c2c(OC(C)C)c1OC (stereo not drawn) [Example 16, 7-s-butoxy-2-(4-hydroxyphenylthio)-5-isopropoxy-6-methoxychromone] | 96.5% | 3.8e-08 M | > 0.0001 M |  |  |
